From patent US10294202B2, “Pyrrolidinones as herbicides” (FMC Corporation, priority 2013, dated 2019)

Columns and labels:
[1] = system: ragweed; assay: Test A pre-/postemergence herbicide test; type: in vivo, Ambrosia elatior; conditions: for Plant response rating, Ragweed: 0 to 100 scale
Outline: (§1)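 Formulated compound (non-phytotoxic solvent, surfactant) sprayed pre- onto soil of seeded loam/sand pots or post- onto seedlings at 1–2 leaves; ~10 d greenhouse; 0–100 visual control rating versus untreated.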

[2] = system: oilseed rape; assay: Test C pre-/postemergence herbicide test; type: in vivo, Brassica napus
Text: (§2) Seeds of plant species selected from blackgrass (Alopecurus myosuroides), ryegrass, Italian (Italian ryegrass, Lolium multiflorum), wheat (winter wheat, Triticum aestivum), galium (catchweed bedstraw, Galium aparine), corn (Zea mays), crabgrass, large (large crabgrass, Digitaria sanguinalis), foxtail, giant (giant foxtail, Setaria faberii), johnsongrass (Sorghum halepense), lambsquarters (Chenopodium album), morningglory (Ipomoea coccinea), nutsedge, yellow (yellow nutsedge, Cyperus esculentus), pigweed (Amaranthus retroflexus), ragweed (common ragweed, Ambrosia elatior), soybean (Glycine max), barnyardgrass (Echinochloa crus-galli), oilseed rape (Brassica napus), waterhemp (common waterhemp, Amaranthus rudis), kochia (Kochia scoparia), oat, wild (wild oat, Avena fatua), surinam grass (Brachiaria decumbens), foxtail, green (green foxtail, Setaria viridis), goosegrass (Eleusine indica), bromegrass, downy (downy bromegrass, Bromus tectorum), nightshade (eastern black nightshade, Solanum ptycanthum), cocklebur (common cocklebur, Xanthium strumarium), cupgrass, woolly (woolly cupgrass, Eriochloa villosa), bermudagrass (Cynodon dactylon), sunflower, (common oilseed sunflower, Helianthus annuus), Russian thistle (Salsola kali) and velvetleaf (Abutilon theophrasti) were planted into a blend of loam soil and sand and treated preemergence with test chemicals formulated in a non-phytotoxic solvent mixture which included a surfactant. At the same time, plants selected from these crop and weed species and also barley (winter barley, Hordeum vulgare), […]), chickweed (common chickweed, Stellaria media), deadnettle (henbit deadnettle, Lamium amplexicaule), and canarygrass (littleseed canarygrass, Phalaris minor) were planted in pots containing Redi-Earth® planting medium (Scotts Company, 14111 Scottslawn Road, Marysville, Ohio 43041) comprising spaghnum peat moss, vermiculite, wetting agent and starter nutrients and treated with postemergence applications of test chemicals formulated in the same manner. Plants ranged in height from 2 to 18 cm (1- to 4-leaf stage) for postemergence treatments. Treated plants and controls were maintained in a greenhouse for 13 to 15 days, after which time all species were compared to controls and visually evaluated. Plant response ratings, summarized in Table C, are based on a scale of 0 to 100 where 0 is no effect and 100 is complete control. A dash (-) response means no test result.

[3] = system: wheat; assay: Test A pre-/postemergence herbicide test; type: in vivo, Triticum aestivum
Outline: as §1

[4] = system: morningglory; assay: Test C pre-/postemergence herbicide test; type: in vivo, Ipomoea coccinea
Outline: (§3)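 Compound solutions contained surfactant in a non-phytotoxic solvent. These were sprayed onto pots of loam/sand sown with seeds, and onto young plants (2 to 18 cm, 1- to 4-leaf) in sphagnum peat–vermiculite mix. Visual injury scores (0 none, 100 complete control) were recorded after 13 to 15 days.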

[5] = system: barnyardgrass; assay: Test C pre-/postemergence herbicide test; type: in vivo, Echinochloa crus-galli
Text: as §2

[6] = system: blackgrass; assay: Test A postemergence herbicide test; type: in vivo, Alopecurus myosuroides
Outline: (§4)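 Ratings compare treated with untreated plants roughly 10 days after a postemergence application made at the one- to two-leaf stage. Scoring uses 0–100, where 0 means no effect and 100 complete control.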

[7] = system: foxtail, giant; assay: Test C pre-/postemergence herbicide test; type: in vivo, Setaria faberii
Outline: as §3

[8] = system: galium; assay: Test A postemergence herbicide test; type: in vivo, Galium aparine
Outline: as §4

[9] = system: ducksalad; assay: Test B flooded paddy test; type: in vivo, Heteranthera limosa; conditions: 250 g ai/ha, Flood; scale of 0 to 100 where 0 is no effect and 100 is complete control
Outline: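 Visual ratings from 0, meaning no effect, up to 100, meaning complete control, were made by comparison with untreated controls 13 to 15 days after treatment. Test compounds went straight into floodwater standing 3 cm over the soil of pots holding 2-leaf seedlings.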

[10] = Postemergence, 31 g ai/ha, scale 0 to 100 (0 no effect, 100 complete control)
[11] = Postemergence, 62 g ai/ha, scale 0 (no effect) to 100 (complete control)
[12] = Postemergence, 125 g ai/ha, scale 0 to 100 (0 no effect, 100 complete control)
[13] = Postemergence, 250 g ai/ha, scale 0 to 100 (0 no effect, 100 complete control)
[14] = Preemergence, 31 g ai/ha, scale 0 to 100, 0 is no effect and 100 is complete control
[15] = Preemergence, 62 g ai/ha, scale 0 to 100 (0 no effect, 100 complete control)
[16] = Preemergence, 125 g ai/ha, scale 0 to 100 (0 no effect, 100 complete control)
[17] = Preemergence, 62 g ai/ha, scale 0 to 100
[18] = 125 g ai/ha, 0 to 100 scale, 0 is no effect, 100 is complete control
[19] = Postemergence, 16 g ai/ha, scale 0 to 100 (0 no effect, 100 complete control)
[20] = Postemergence, 31 g ai/ha, scale 0 (no effect) to 100 (complete control)
[21] = Postemergence, 62 g ai/ha, scale 0 to 100 (0 no effect, 100 complete control)
[22] = Preemergence, 16 g ai/ha, scale 0 to 100

## O=C1NC[C@H](c2cccc(C(F)(F)F)c2)[C@H]1C(=O)Nc1ccccc1F [Compound 204, (3R,4S)—N-(2-fluorophenyl)-2-oxo-4-[3-(trifluoromethyl)phenyl]-3-pyrrolidinecarboxamide]
[1]; 125 g ai/ha, visual rating, 0 no effect, 100 complete control, approximately 10 days, preemergence
  Plant response rating, Ragweed: 0
[1]; Postemergence, 125 g ai/ha, 0 is no effect, 100 is complete control
  Plant response rating, Ragweed: 0
[1]; Postemergence, 500 g ai/ha
  Ragweed plant response rating (0 to 100 scale, 0 is no effect, 100 is complete control): 0
[1]; preemergence, 500 g ai/ha, 0 is no effect and 100 is complete control
  Plant response rating, Ragweed: 80
[2]; [10]
  Plant response rating, Oilseed Rape: 0
[2]; [11]
  Plant response rating, Oilseed Rape: 0
[2]; [12]
  Plant response rating, Oilseed Rape: 0
[2]; [13]
  Plant response rating, Oilseed Rape: 45
[2]; [14]
  Oilseed Rape plant response rating: 0
[2]; [15]
  Oilseed Rape plant response rating: 0
[2]; [16]
  Plant response rating, Oilseed Rape: 0
[2]; Preemergence, 250 g ai/ha
  Plant response rating (scale of 0 to 100), Oilseed Rape: 60
[3]; Postemergence, 500 g ai/ha
  Wheat plant response rating (0 to 100 scale, 0 is no effect, 100 is complete control): 80
[3]; Triticum aestivum, post-emergence, 240 h, Postemergence, 125 g ai/ha, 0 to 100 scale, 0 is no effect, 100 is complete control, read-out: Plant response rating, Wheat
  plant injury at 125 g/ha: 60%
[4]; [10]
  Plant response rating, Morningglory: 5
[4]; [11]
  Plant response rating, Morningglory: 5
[4]; [12]
  Plant response rating, Morningglory: 15
[4]; [13]
  Plant response rating, Morningglory: 35
[4]; [14]
  Morningglory plant response rating: 0
[4]; [15]
  Morningglory plant response rating: 0
[4]; [16]
  Plant response rating, Morningglory: 20
[4]; Preemergence, 250 g ai/ha
  Plant response rating (scale of 0 to 100), Morningglory: 40
[5]; [10]
  Plant response rating, Barnyardgrass: 5
[5]; [11]
  Plant response rating, Barnyardgrass: 55
[5]; [12]
  Plant response rating, Barnyardgrass: 80
[5]; [13]
  Plant response rating, Barnyardgrass: 90
[5]; [14]
  Barnyardgrass plant response rating: 80
[5]; [17]
  Plant response rating, Barnyardgrass: 90
[5]; [16]
  Plant response rating, Barnyardgrass: 95
[5]; Preemergence, 250 g ai/ha
  Plant response rating (scale of 0 to 100; 0 is no effect, 100 is complete control), Barnyardgrass: 95
[6]; [18]
  Plant response rating, Blackgrass: 70
[6]; 500 g ai/ha
  Blackgrass plant response rating (0 to 100 scale, 0 is no effect, 100 is complete control): 80
[7]; [10]
  Plant response rating, Foxtail, Giant: 0
[7]; [11]
  Plant response rating, Foxtail, Giant: 10
[7]; [12]
  Plant response rating, Foxtail, Giant: 90
[7]; [13]
  Plant response rating, Foxtail, Giant: 90
[7]; [14]
  Foxtail, Giant plant response rating: 90
[7]; [15]
  Foxtail, Giant plant response rating: 90
[7]; [16]
  Plant response rating, Foxtail, Giant: 95
[7]; Preemergence, 250 g ai/ha
  Plant response rating (scale of 0 to 100), Foxtail, Giant: 95
[8]; [18]
  Plant response rating, Galium: 50
[8]; 500 g ai/ha
  Galium plant response rating (0 to 100 scale, 0 is no effect, 100 is complete control): 60

## O=C1NCC(c2cc(F)c(F)c(F)c2)C1C(=O)Nc1cccc(F)c1F (centres unmarked) [Compound 48]
[9]
  Plant response rating, Ducksalad: 100
[3]; Postemergence, 125 g ai/ha, 0 to 100 scale, 0 no effect, 100 complete control
  Plant response rating, Wheat: 20
[3]; Postemergence, 500 g ai/ha, 0 to 100 scale (0 no effect, 100 complete control)
  Plant response rating, Wheat: 40
[3]; Preemergence, 125 g ai/ha, visual rating on 0 to 100 scale (0 no effect, 100 complete control)
  Wheat plant response rating: 0
[3]; preemergence, 500 g ai/ha, 0 to 100 scale
  Plant response rating, Wheat: 50
[4]; [19]
  Plant response rating, Morningglory: 10
[4]; [20]
  Plant response rating, Morningglory: 10
[4]; [21]
  Plant response rating, Morningglory: 10
[4]; [12]
  Plant response rating, Morningglory: 10
[4]; [17]
  Plant response rating, Morningglory: 0
[4]; [16]
  Plant response rating, Morningglory: 15
[4]; [22]
  Plant response rating, Morningglory: 0
[7]; [19]
  Plant response rating, Foxtail, Giant: 0
[7]; [20]
  Plant response rating, Foxtail, Giant: 5
[7]; [21]
  Plant response rating, Foxtail, Giant: 20
[7]; [12]
  Plant response rating, Foxtail, Giant: 40
[7]; [17]
  Plant response rating, Foxtail, Giant: 85
[7]; [16]
  Plant response rating, Foxtail, Giant: 95
[7]; [22]
  Plant response rating, Foxtail, Giant: 40
[7]; Preemergence, 31 g ai/ha, scale 0 to 100 (0 no effect, 100 complete control)
  Foxtail, Giant plant response rating: 80
